# Measured values reported in patent US7572603B2, “Alpha-2 adrenergic receptor polymorphisms” (University of Cincinnati, priority 2000, dated 2009).
# Changes are numbered by the printed parent chain.
# Legend:
# wild-type alpha-2CAR [1] = molecular target: T1, wild-type alpha-2CAR (Homo sapiens, UniProt P18825); experiment: Inhibition of forskolin-stimulated adenylyl cyclase, CHO cell membranes; assay type: biochemical; conditions: CHO line expressing 1570 ± 79.9 fmol/mg
# T1 construct: expressed in transfected cells; membranes or intact cells
# T1 sequence (P18825 1-462 L239R/S401I/R446P): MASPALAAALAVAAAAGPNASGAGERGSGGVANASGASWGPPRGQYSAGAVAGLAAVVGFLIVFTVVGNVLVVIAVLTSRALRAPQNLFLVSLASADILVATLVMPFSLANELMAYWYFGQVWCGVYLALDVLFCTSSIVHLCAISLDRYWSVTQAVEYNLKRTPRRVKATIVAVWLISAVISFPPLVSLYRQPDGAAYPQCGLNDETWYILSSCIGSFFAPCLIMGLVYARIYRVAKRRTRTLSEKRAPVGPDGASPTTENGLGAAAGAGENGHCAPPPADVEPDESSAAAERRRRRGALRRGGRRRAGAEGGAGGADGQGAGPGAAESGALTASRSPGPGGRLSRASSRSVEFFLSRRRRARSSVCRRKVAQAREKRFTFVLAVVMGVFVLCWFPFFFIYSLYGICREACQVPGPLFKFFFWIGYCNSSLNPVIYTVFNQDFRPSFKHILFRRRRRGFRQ
# Description: (§1) Reactions were terminated by the addition of a stop solution containing excess ATP and cAMP and —100,000 dpm of [3H]cAMP. Labeled cAMP was isolated by gravity chromatography over alumina columns with [3H]cAMP used to quantitate column recovery. […] Results are expressed as percent inhibition of forskolin stimulated activity.
# Lys251 alpha-2AAR [2] = molecular target: T2, Lys251 alpha-2AAR (Homo sapiens, UniProt P08913, N266K); experiment: [35S]GTPyS binding, COS-7 membranes coexpressing receptor and Gi alpha2; assay type: biochemical; parameters: expressed in transfected cells; membranes or intact cells; conditions: 10 μM agonist
# T2 sequence (P08913 16-465 N266K): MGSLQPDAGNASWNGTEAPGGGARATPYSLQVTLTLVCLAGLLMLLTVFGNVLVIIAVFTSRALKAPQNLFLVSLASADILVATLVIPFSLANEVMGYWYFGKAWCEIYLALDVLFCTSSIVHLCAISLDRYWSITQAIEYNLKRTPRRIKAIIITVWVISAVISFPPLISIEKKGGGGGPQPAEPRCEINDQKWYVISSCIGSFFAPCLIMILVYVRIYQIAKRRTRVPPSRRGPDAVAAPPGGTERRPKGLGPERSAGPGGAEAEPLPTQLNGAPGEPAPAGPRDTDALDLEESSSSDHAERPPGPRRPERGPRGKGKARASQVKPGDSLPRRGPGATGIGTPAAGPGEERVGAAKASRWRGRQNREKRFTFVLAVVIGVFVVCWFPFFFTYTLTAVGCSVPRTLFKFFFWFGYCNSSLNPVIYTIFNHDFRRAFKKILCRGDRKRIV
# Procedure: Nonspecific binding was measured in the presence of […] GTPyS.
# wild-type alpha-2CAR [3] = molecular target: T3, wild-type alpha-2CAR (Homo sapiens, UniProt P18825, L239R/R446P/S401I); experiment: Inhibition of forskolin-stimulated adenylyl cyclase, CHO cell membranes; assay type: biochemical; parameters: expressed in transfected cells; membranes or intact cells; conditions: for Max Inhibition (%) of adenylyl cyclase: CHO line expressing 1570 ± 79.9 fmol/mg
# T3 sequence (P18825 1-462 L239R/S401I/R446P): T1 sequence (P18825 1-462 L239R/S401I/R446P)
# Description: as §1
# wild-type alpha-2CAR [4] = molecular target: T3, wild-type alpha-2CAR; conditions: epinephrine competition, absence of GTP
# wild-type alpha-2CAR [5] = molecular target: T3, wild-type alpha-2CAR; conditions: 10 μM epinephrine vs 1 unit/ml thrombin
# wild-type alpha-2CAR [6] = molecular target: T3, wild-type alpha-2CAR; conditions: 10 μM epinephrine, 5 min; expression 806 fmol/mg
# wild-type alpha-2BAR [7] = molecular target: T4, wild-type alpha-2BAR (Homo sapiens, UniProt P18089); experiment: Inhibition of forskolin-stimulated adenylyl cyclase, CHO cell membranes, incl. desensitization; assay type: biochemical; parameters: The human receptor consists of 450 amino acids; expressed in transfected cells; membranes
# T4 sequence (P18089 1-450): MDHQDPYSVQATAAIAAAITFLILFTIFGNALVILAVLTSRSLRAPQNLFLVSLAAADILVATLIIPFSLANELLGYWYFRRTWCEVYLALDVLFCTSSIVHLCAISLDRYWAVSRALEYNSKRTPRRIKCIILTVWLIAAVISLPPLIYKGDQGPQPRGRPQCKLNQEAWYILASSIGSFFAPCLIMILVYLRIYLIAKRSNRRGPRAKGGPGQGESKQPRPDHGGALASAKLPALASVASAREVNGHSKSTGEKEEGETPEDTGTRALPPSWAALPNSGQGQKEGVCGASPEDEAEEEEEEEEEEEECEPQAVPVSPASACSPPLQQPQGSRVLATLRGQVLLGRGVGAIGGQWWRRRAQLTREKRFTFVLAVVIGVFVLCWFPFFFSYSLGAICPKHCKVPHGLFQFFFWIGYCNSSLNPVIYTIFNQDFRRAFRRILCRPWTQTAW
# Procedure: Alpha-2BAR inhibition of adenylyl cyclase was determined in membrane preparations from CHO cells stably expressing the two receptors using methods similar to those previously described (25). […] Reactions were terminated by the addition of a stop solution containing excess ATP and cAMP and -100,000 dpm of [3H]cAMP. Labeled cAMP was isolated by gravity chromatography over alumina columns with [3H]cAMP used to quantitate column recovery. Results are expressed as percent inhibition of forskolin stimulated activity.
# wild-type alpha-2BAR [8] = molecular target: T4, wild-type alpha-2BAR; assay type: cell-based; parameters: expressed in transfected cells; host or cells: COS-7, transient (DEAE-dextran), co-transfected with GRK2; conditions: 10 μM norepinephrine 15 minutes, GRK2 co-expressed
# [9] = molecular target: T5, wild-type Asn251 alpha-2AAR (Homo sapiens, UniProt P08913); conditions: expression 2360±263 fmol/mg
# T5 sequence (P08913 16-465): T2 sequence (P08913 16-465 N266K) with K251N
# Procedure: (§2) Alpha-2AAR inhibition of adenylyl cyclase was determined in membrane preparations from CHO cells stably expressing the two receptors using methods similar to those previously described (18). […] Reactions were terminated by the addition of a stop solution containing excess ATP and cAMP and —100,000 dpm of [3H]cAMP. Labeled cAMP was isolated by gravity chromatography over alumina columns with [3H]cAMP used to quantitate column recovery. […] Results are expressed as percent inhibition of forskolin stimulated activity.
# Lys251 alpha-2AAR [10] = molecular target: T2, Lys251 alpha-2AAR
# Procedure: as §2
structure (smiles),measurement,setting,value
CCN1CCc2nc(N)oc2CC1 [BHT-933],EC50,wild-type alpha-2CAR [1],5500 ± 2110 nM
same,enhanced [35S]GTPyS binding for the Lys251 receptor as compared to the Asn251 receptor,Lys251 alpha-2AAR [2],45%
same,Max Inhibition (%) of adenylyl cyclase,wild-type alpha-2CAR [3],56.8 ± 1.41%
Brc1c(NC2=NCCN2)ccc2nccnc12 [UK 14304],enhanced [35S]GTPyS binding for the Lys251 receptor as compared to the Asn251 receptor,Lys251 alpha-2AAR [2],~40%
same,Max Inhibition (%) of adenylyl cyclase,wild-type alpha-2CAR [3],67.6 ± 2.09%
Clc1cccc(Cl)c1N=C1NCCN1 [clonidine],Max Inhibition (%) of adenylyl cyclase,wild-type alpha-2CAR [3],38.5 ± 2.44%
CNC[C@H](O)c1ccc(O)c(O)c1 [epinephrine],% RH (percentage of receptors in the high-affinity state),wild-type alpha-2CAR [4],42%
same,MAP kinase stimulation as a percent of the thrombin response,wild-type alpha-2CAR [5],128
same,stimulated accumulation of inositol phosphates over basal,wild-type alpha-2CAR [6],3Q
same,agonist-promoted inhibition of adenylyl cyclase,"wild-type alpha-2CAR [3]; lower expressing line, 565 fmol/mg",73%
N=C(N)N/N=C/c1c(Cl)cccc1Cl [guanabenz],enhanced [35S]GTPyS binding for the Lys251 receptor as compared to the Asn251 receptor,Lys251 alpha-2AAR [2],72%
same,Max Inhibition (%) of adenylyl cyclase,wild-type alpha-2CAR [3],53.8 ± 1.99%
NC[C@H](O)c1ccc(O)c(O)c1 [norepinephrine],enhanced [35S]GTPyS binding for the Lys251 receptor as compared to the Asn251 receptor,Lys251 alpha-2AAR [2],~40%
same,Max Inhibition (%) of adenylyl cyclase,wild-type alpha-2CAR [3],76.6 ± 1.60%
same,Desensitization %,wild-type alpha-2BAR [7]; after 10 μM norepinephrine 30 min at 37° C.,~54%
same,Submax inhibition % Ctrl,"wild-type alpha-2BAR [7]; at the EC50 of control membranes, cells pretreated with media alone",16.5±3.9%
same,Max Inhibition of forskolin-stimulated adenylyl cyclase,wild-type alpha-2BAR [7]; receptor density 626±54 fmol/mg,28.5±1.6%
same,fold increase in receptor phosphorylation with agonist exposure,wild-type alpha-2BAR [8],5.84±0.49 fold
Cc1cc(C(C)(C)C)c(O)c(C)c1CC1=NCCN1 [oxymetazoline],Maximal inhibition of forskolin-stimulated adenylyl cyclase,[9],35±4.7%
same,augmented function (adenylyl cyclase inhibition) compared to the Asn251 receptor,Lys251 alpha-2AAR [10]; Lys251 vs Asn251,~40%
same,Maximal inhibition of forskolin-stimulated adenylyl cyclase,Lys251 alpha-2AAR [10]; expression 2590±140 fmol/mg,50±6.6%
same,Max Inhibition (%) of adenylyl cyclase,wild-type alpha-2CAR [3],27.0 ± 2.70%
